Measured values as given in PubChem BioAssay AID2060498 (Molecular Pharmacology Branch, DTP, NCI, 2025).

System: 171881-019-R-J1-PDC tumor spheroids, viability
Test: Anticancer human tumor 171881-019-R-J1-PDC patient-derived invasive breast carcinoma cell line growth inhibition [GQUAD]
Conditions: spheroids with HUVEC and MSC; for IC50: curve of first compound; for viability, T/C: stronger effect = lower value
Outline: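 Viability of tumor cells grown as complex spheroids with endothelial and stromal cells, exposed to drug combinations. Top concentration at or near clinical Cmax (else 10 microM), diluted in half-log increments.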

[1] = second compound 0.0316 µM, first compound 0.0316 µM
[2] = second compound 0.0316 µM, first compound 0.1 µM
[3] = second compound 0.0316 µM, first compound 0.316 µM
[4] = second compound 0.0316 µM, first compound 1 µM
[5] = second compound 0.0316 µM, first compound 3.16 µM
[6] = second compound 0.0316 µM, first compound 10 µM
[7] = second compound 0.1 µM, first compound 0.0316 µM
[8] = second compound 0.1 µM, first compound 0.1 µM
[9] = second compound 0.1 µM, first compound 0.316 µM
[10] = second compound 0.1 µM, first compound 1 µM
[11] = second compound 0.1 µM, first compound 3.16 µM
[12] = second compound 0.1 µM, first compound 10 µM
[13] = second compound 0.316 µM, first compound 0.0316 µM
[14] = second compound 0.316 µM, first compound 0.1 µM
[15] = second compound 0.316 µM, first compound 0.316 µM
[16] = second compound 0.316 µM, first compound 1 µM
[17] = second compound 0.316 µM, first compound 3.16 µM
[18] = second compound 0.316 µM, first compound 10 µM
[19] = second compound 1 µM, first compound 0.0316 µM
[20] = second compound 1 µM, first compound 0.1 µM
[21] = second compound 1 µM, first compound 0.316 µM
[22] = second compound 1 µM, first compound 1 µM
[23] = second compound 1 µM, first compound 3.16 µM
[24] = second compound 1 µM, first compound 10 µM
[25] = second compound 3.16 µM, first compound 0.0316 µM
[26] = second compound 3.16 µM, first compound 0.1 µM
[27] = second compound 3.16 µM, first compound 0.316 µM
[28] = second compound 3.16 µM, first compound 1 µM
[29] = second compound 3.16 µM, first compound 3.16 µM
[30] = second compound 3.16 µM, first compound 10 µM
[31] = second compound 10 µM, first compound 0.0316 µM
[32] = second compound 10 µM, first compound 0.1 µM
[33] = second compound 10 µM, first compound 0.316 µM
[34] = second compound 10 µM, first compound 1 µM
[35] = second compound 10 µM, first compound 3.16 µM
[36] = second compound 10 µM, first compound 10 µM
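Wherever viability, T/C is given: 100% = DMSO vehicle control viability.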

Q: `Cc1cccc(N(C)C(=O)C2C(O)CCN2c2nc(C)cc(C(F)(F)F)c2C#N)c1` (centres undefined) + CN(C)c1ccc(Nc2c3ccc(NC(=O)CCN4CCCC4)cc3nc3cc(NC(=O)CCN4CCCC4)ccc23)cc1 was tested. Which IC50 (second compound 0.0316 µM) did it give?
A: Its IC50 is greater than 10 µM.

Q: What about the IC50 (second compound 0.1 µM) of the same compound?
A: Its IC50 is greater than 10 µM.

Q: What about the IC50 (second compound 0.316 µM) of the same compound?
A: The IC50 was 7.84 µM.

Q: What about the IC50 (second compound 1 µM) of the same compound?
A: Its IC50 is less than 0.0316 µM.

Q: And the IC50 (second compound 3.16 µM)?
A: Its IC50 is less than 0.0316 µM.

Q: And the IC50 (second compound 10 µM)?
A: Its IC50 is less than 0.0316 µM.

Q: And the viability, T/C [1]?
A: Its viability, T/C is 87.6%.

Q: And the viability, T/C [2]?
A: The viability, T/C was 91.2%.

Q: What about the viability, T/C [3] of the same compound?
A: The viability, T/C was 103%.

Q: What about the viability, T/C [4] of the same compound?
A: The viability, T/C was 101%.

Q: And the viability, T/C [5]?
A: The viability, T/C was 87.6%.

Q: What about the viability, T/C [6] of the same compound?
A: The viability, T/C was 79.2%.

Q: What about the viability, T/C [7] of the same compound?
A: Its viability, T/C is 99.2%.

Q: What about the viability, T/C [8] of the same compound?
A: The viability, T/C was 102%.

Q: What about the viability, T/C [9] of the same compound?
A: Its viability, T/C is 96.4%.

Q: What about the viability, T/C [10] of the same compound?
A: Its viability, T/C is 105%.

Q: What about the viability, T/C [11] of the same compound?
A: The viability, T/C was 85.6%.

Q: And the viability, T/C [12]?
A: The viability, T/C was 75.2%.

Q: What about the viability, T/C [13] of the same compound?
A: Its viability, T/C is 88.3%.

Q: And the viability, T/C [14]?
A: Its viability, T/C is 93.5%.

Q: What about the viability, T/C [15] of the same compound?
A: The viability, T/C was 85.2%.

Q: What about the viability, T/C [16] of the same compound?
A: The viability, T/C was 75.1%.

Q: And the viability, T/C [17]?
A: The viability, T/C was 75.7%.

Q: What about the viability, T/C [18] of the same compound?
A: Its viability, T/C is 43.3%.

Q: What about the viability, T/C [19] of the same compound?
A: Its viability, T/C is 26.3%.

Q: And the viability, T/C [20]?
A: The viability, T/C was 23.1%.

Q: And the viability, T/C [21]?
A: The viability, T/C was 31.7%.

Q: And the viability, T/C [22]?
A: The viability, T/C was 23.1%.

Q: And the viability, T/C [23]?
A: Its viability, T/C is 19.1%.

Q: And the viability, T/C [24]?
A: Its viability, T/C is 9.15%.

Q: What about the viability, T/C [25] of the same compound?
A: Its viability, T/C is 1.62%.

Q: What about the viability, T/C [26] of the same compound?
A: Its viability, T/C is 1.75%.

Q: And the viability, T/C [27]?
A: Its viability, T/C is 1.5%.

Q: What about the viability, T/C [28] of the same compound?
A: The viability, T/C was 1.54%.

Q: What about the viability, T/C [29] of the same compound?
A: Its viability, T/C is 1.07%.

Q: What about the viability, T/C [30] of the same compound?
A: Its viability, T/C is 1.26%.

Q: And the viability, T/C [31]?
A: The viability, T/C was 0.45%.

Q: What about the viability, T/C [32] of the same compound?
A: The viability, T/C was 0.54%.

Q: And the viability, T/C [33]?
A: The viability, T/C was 0.26%.

Q: And the viability, T/C [34]?
A: Its viability, T/C is 0.48%.

Q: What about the viability, T/C [35] of the same compound?
A: The viability, T/C was 0.65%.

Q: What about the viability, T/C [36] of the same compound?
A: The viability, T/C was 0.44%.

Q: How did the IC50 (second compound 0.0316 µM) turn out when `O=c1[nH]cc(F)c(=O)[nH]1` + CN(C)c1ccc(Nc2c3ccc(NC(=O)CCN4CCCC4)cc3nc3cc(NC(=O)CCN4CCCC4)ccc23)cc1 was run?
A: The IC50 was greater than 10 µM.

Q: What about the IC50 (second compound 0.1 µM) of the same compound?
A: The IC50 was greater than 10 µM.

Q: And the IC50 (second compound 0.316 µM)?
A: The IC50 was 9.94 µM.

Q: And the IC50 (second compound 1 µM)?
A: Its IC50 is less than 0.0316 µM.

Q: And the IC50 (second compound 3.16 µM)?
A: Its IC50 is less than 0.0316 µM.

Q: What about the IC50 (second compound 10 µM) of the same compound?
A: Its IC50 is less than 0.0316 µM.

Q: What about the viability, T/C [1] of the same compound?
A: Its viability, T/C is 84%.

Q: And the viability, T/C [2]?
A: The viability, T/C was 79.3%.

Q: What about the viability, T/C [3] of the same compound?
A: Its viability, T/C is 75.2%.

Q: And the viability, T/C [4]?
A: Its viability, T/C is 69.5%.

Q: What about the viability, T/C [5] of the same compound?
A: Its viability, T/C is 62.9%.

Q: And the viability, T/C [6]?
A: The viability, T/C was 63.9%.

Q: What about the viability, T/C [7] of the same compound?
A: Its viability, T/C is 79.7%.

Q: And the viability, T/C [8]?
A: The viability, T/C was 72.9%.

Q: What about the viability, T/C [9] of the same compound?
A: Its viability, T/C is 73.4%.

Q: What about the viability, T/C [10] of the same compound?
A: The viability, T/C was 69.1%.

Q: And the viability, T/C [11]?
A: The viability, T/C was 65.7%.

Q: What about the viability, T/C [12] of the same compound?
A: The viability, T/C was 61.6%.

Q: What about the viability, T/C [13] of the same compound?
A: The viability, T/C was 70.5%.

Q: And the viability, T/C [14]?
A: Its viability, T/C is 69.4%.

Q: And the viability, T/C [15]?
A: Its viability, T/C is 69.5%.

Q: And the viability, T/C [16]?
A: Its viability, T/C is 55.4%.

Q: What about the viability, T/C [17] of the same compound?
A: Its viability, T/C is 58%.

Q: And the viability, T/C [18]?
A: The viability, T/C was 49.9%.

Q: What about the viability, T/C [19] of the same compound?
A: The viability, T/C was 14.9%.

Q: What about the viability, T/C [20] of the same compound?
A: The viability, T/C was 11.1%.

Q: What about the viability, T/C [21] of the same compound?
A: Its viability, T/C is 17%.

Q: And the viability, T/C [22]?
A: The viability, T/C was 12.6%.

Q: What about the viability, T/C [23] of the same compound?
A: The viability, T/C was 13.4%.

Q: What about the viability, T/C [24] of the same compound?
A: The viability, T/C was 15.8%.

Q: And the viability, T/C [25]?
A: Its viability, T/C is 2.15%.

Q: And the viability, T/C [26]?
A: Its viability, T/C is 1.36%.

Q: And the viability, T/C [27]?
A: Its viability, T/C is 2.04%.

Q: And the viability, T/C [28]?
A: Its viability, T/C is 2.2%.

Q: And the viability, T/C [29]?
A: The viability, T/C was 2.62%.

Q: And the viability, T/C [30]?
A: Its viability, T/C is 2.05%.

Q: What about the viability, T/C [31] of the same compound?
A: Its viability, T/C is 0.33%.

Q: What about the viability, T/C [32] of the same compound?
A: Its viability, T/C is 0.41%.

Q: And the viability, T/C [33]?
A: Its viability, T/C is 0.8%.

Q: What about the viability, T/C [34] of the same compound?
A: The viability, T/C was 0.38%.

Q: And the viability, T/C [35]?
A: The viability, T/C was 0.5%.

Q: And the viability, T/C [36]?
A: The viability, T/C was 0.29%.
